Structures can show the parent of a compound that is named as a salt.
Biological target: recombinant human CETP protein (Homo sapiens (Human), UniProt P11597)
Assay: Test of CETP inhibition activity (in vitro, buffer-based)
Assay type: biochemical
Settings: [14C]-cholesteryl ester transfer from reconstituted HDL to acceptor lipoprotein, 37° C., 60 minutes, PBS buffer
Method: Test of CETP Inhibition Activity (In Vitro, Buffer-Based)
(1) Preparation of Reconstituted HDL
Cholesterol (1.125 μmol), phosphatidyl choline (4.5 μmol) and [^14C]-labeled cholesteryl ester (2.0 μCi; 40 μl) were taken in a glass test tube and well mixed with a vortex, and dried under a nitrogen gas current so that it formed a thin film. The obtained mixture was dissolved in ethanol (200 μl), which was designated as Solution A. A PBS solution [a mixed solution of Na2HPO4 (30 mM), KH2PO4 (8.8 mM), NaCl (60 mM) and EDTA (pH 7.4; 0.67 mM); 4 ml] was taken in a tube and the reaction solution was vigorously stirred with a vortex under a nitrogen current. The above-described Solution A was gently injected into this mixture with a syringe and the reaction solution was vigorously stirred with a vortex for 5 minutes under a nitrogen current. Sodium cholate (200 mM; 0.38 ml) was added to the obtained mixture and the reaction solution was stirred for 2 minutes. ApoA-I protein (3 mg) was added to the obtained mixture and the reaction solution was stirred for 2 minutes. The obtained mixture was adjusted to 5 ml with the PBS solution and then dialyzed with the PBS solution. The obtained mixture was designated as the reconstituted HDL.
(2) Preparation of Acceptor Lipoprotein
NaBr was added to the plasma of a healthy person and the density of the mixture was adjusted to 1.019, and the mixture was subjected to density gradient centrifugation (40000 rpm, for 16 hours) to remove the fraction having a density of less than 1.019. NaBr was added to the obtained mixture and the density of the solution was adjusted to 1.063, and the solution was subjected to density gradient centrifugation (40000 rpm, 18 hours) to provide the fraction consisting of IDL (intermediate density lipoprotein) and LDL (1.019<density<1.063). The obtained fraction was dialyzed with the PBS solution. The obtained mixture was designated as the acceptor lipoprotein.
(3) Measurement of CETP Inhibition Activity
A recombinant human CETP protein (manufactured by Roar Biomedical Inc.; 4.5 ng), the acceptor lipoprotein described in (2) above (32.5 μg) and 5,5′-dithio-bis-(2-nitrobenzoic acid) (7 mM, 15 μl) were taken in a 96 well plate and the total amount of the mixture was adjusted to 48.5 μl with the PBS solution. The test compound [DMSO solution (concentration: 0.15, 0.5, 1.5, 5, 15, 50, 150 and 500 μM); 1.5 μl] was added to each well and the mixture was incubated in a thermostatic bath at 37° C. for 60 minutes. The reconstituted HDL (50 μl) described in (1) above was added to each well and the mixture was reacted in a thermostatic bath at 37° C. for 60 minutes. The 96 well plate was moved onto ice and a precipitation reagent [a mixed solution of magnesium chloride (60 mM) and 0.1% dextran sulfate[1/1(v/v)]; 15 μl] was added to each well, and then the mixture was allowed to stand on ice for 15 minutes. The reaction solution (80 μl) in each well was moved to a filter plate and centrifuged at 1500 rpm for 1 minute, and the filtrate which passed through the filter was designated as the HDL fraction and the radioactivity thereof was measured with a scintillation counter. The percentage decrease in radioactivity in the case where the test compound was added in comparison with that in case where the test compound was not added was designated as the percentage CETP inhibition. The IC50 value was calculated from the percentage CETP inhibition.

recombinant human CETP protein, sequence (P11597 18-493): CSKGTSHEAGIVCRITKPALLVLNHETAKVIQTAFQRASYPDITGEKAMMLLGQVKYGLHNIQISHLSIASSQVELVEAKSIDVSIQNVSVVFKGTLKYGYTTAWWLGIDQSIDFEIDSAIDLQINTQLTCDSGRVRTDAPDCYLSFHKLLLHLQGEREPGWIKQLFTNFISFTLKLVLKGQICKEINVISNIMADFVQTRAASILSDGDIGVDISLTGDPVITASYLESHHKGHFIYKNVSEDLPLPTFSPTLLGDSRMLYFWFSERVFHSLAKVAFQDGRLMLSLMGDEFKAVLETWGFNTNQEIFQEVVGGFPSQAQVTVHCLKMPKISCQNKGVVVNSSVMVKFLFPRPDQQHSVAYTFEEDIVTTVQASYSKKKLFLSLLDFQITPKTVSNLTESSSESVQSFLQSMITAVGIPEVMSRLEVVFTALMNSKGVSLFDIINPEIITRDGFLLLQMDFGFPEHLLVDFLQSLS

| SMILES | IC50 (dihydrochloride) [nM] | IC50 (dihydrobromide) [nM] |
| --- | --- | --- |
| CC1(C)Cc2nc(C3CCN(c4ncc(OCC(C)(CO)CO)cn4)CC3)c([C@@H](F)c3ccc(C(F)(F)F)cc3)c(C3CCC(F)(F)CC3)c2[C@@H](O)C1 [Example 4, (5S)-4-(4,4-Difluorocyclohexyl)-3-{(S)-fluoro[4-(trifluoromethyl)phenyl]methyl}-2-(1-{5-[3-hydroxy-2-(hydroxymethyl)-2-methylpropoxy]pyrimidin-2-yl}piperidin-4-yl)-7,7-dimethyl-5,6,7,8-tetrahydroquinolin-5-ol dihydrochloride] | 22.3 | – |
| CC1(C)Cc2nc(C3CCN(c4ncc(OC[C@@H](O)CO)cn4)CC3)c([C@@H](F)c3ccc(C(F)(F)F)cc3)c(C3CCC(F)(F)CC3)c2[C@@H](O)C1 [Example 13, (5S)-4-(4,4-Difluorocyclohexyl)-2-[1-(5-{[(2S)-2,3-dihydroxypropyl]oxy}pyrimidin-2-yl)piperidin-4-yl]-3-{(S)-fluoro[4-(trifluoromethyl)phenyl]methyl}-7,7-dimethyl-5,6,7,8-tetrahydroquinolin-5-ol dihydrochloride] | 58.4 | – |
| CC1(C)Cc2nc(C3CCN(c4ncc(OCC(CO)CO)cn4)CC3)c([C@@H](F)c3ccc(C(F)(F)F)cc3)c(C3CCC(F)(F)CC3)c2[C@@H](O)C1 [Example 1, (5S)-4-(4,4-Difluorocyclohexyl)-3-{(S)-fluoro[4-(trifluoromethyl)phenyl]methyl}-2-(1-{5-[3-hydroxy-2-(hydroxymethyl)propoxy]pyrimidin-2-yl}piperidin-4-yl)-7,7-dimethyl-5,6,7,8-tetrahydr oquinolin-5-ol dihydrochloride] | 35.2 | – |
| CC1(C)Cc2nc(C3CCN(c4ncc(OCCCS(C)(=O)=O)cn4)CC3)c([C@@H](F)c3ccc(C(F)(F)F)cc3)c(C3CCC(F)(F)CC3)c2[C@@H](O)C1 [Example 18, (5S)-4-(4,4-Difluorocyclohexyl)-3-{(S)-fluoro[4-(trifluoromethyl)phenyl]methyl}-7,7-dimethyl-2-(1-{5-[3-(methylsulfonyl)propoxy]pyrimidin-2-yl}piperidin-4-yl)-5,6,7,8-tetrahydroquinolin-5-ol dihydrobromide] | – | 18.9 |

Reference: patent publication US9321747B2, “Acid addition salt of substituted pyridine compound” (DAIICHI SANKYO COMPANY, LIMITED, priority 2012, dated 2016)
